Test results: ChEMBL document CHEMBL2417417, “Chemical variation from the neoantimycin depsipeptide assembly line” (Bioorg Med Chem Lett, 2013)
Calls of active or inactive are those of the source. The rule behind the calls is not given here.

Tested on: HT-29
Test: Antiproliferative activity against human HT-29 cells at 100 uM up to 15 hrs by non-radioactive cell proliferation assay
Assay type: functional, cell-based

Q: How did the Activity turn out when `CC(C)[C@@H]1OC(=O)[C@@H](NC(=O)c2cccc(NC=O)c2O)[C@H](C)OC(=O)[C@H](C(C)C)OC(=O)C(C)(C)[C@@H](O)[C@@H](Cc2ccccc2)OC1=O` was run?
A: The Activity was “inactive”.

Q: With `CC[C@H](C)[C@@H]1OC(=O)C(C)(C)[C@@H](O)[C@@H](Cc2ccccc2)OC(=O)[C@H](C)OC(=O)[C@@H](NC(=O)c2cccc(NC=O)c2O)[C@H](C)OC1=O` as the molecule, how does the Activity read?
A: Its Activity is “inactive”.

Q: With `CC(C)[C@@H]1OC(=O)[C@@H](NC(=O)c2cccc(N)c2O)[C@H](C)OC(=O)[C@H](C(C)C)OC(=O)C(C)(C)[C@@H](O)[C@@H](Cc2ccccc2)OC1=O` as the molecule, how does the Activity read?
A: Its Activity is “inactive”.

Q: For `CC[C@H](C)[C@@H]1OC(=O)C(C)(C)[C@@H](O)[C@@H](Cc2ccccc2)OC(=O)[C@H](C)OC(=O)[C@@H](NC(=O)c2cccc(N)c2O)[C@H](C)OC1=O`, which Activity is on record?
A: The Activity was “inactive”.

Q: How did the Activity turn out when `CC[C@H](C)[C@@H]1OC(=O)C(C)(C)[C@@H](O)[C@@H](Cc2ccccc2)OC(=O)[C@H](C(C)C)OC(=O)[C@@H](NC(=O)c2cccc(N)c2O)[C@H](C)OC1=O` was run?
A: Its Activity is “inactive”.

Q: For `CC[C@H](C)[C@@H]1OC(=O)C(C)(C)[C@@H](O)[C@@H](Cc2ccccc2)OC(=O)[C@H](C(C)C)OC(=O)[C@@H](NC(=O)c2cccc(NC=O)c2O)[C@H](C)OC1=O`, which Activity is on record?
A: Its Activity is “inactive”.
